Measured values from patent US6355799B1, “Substituted benzene compounds, process for their preparation, and herbicidal and defoliant compositions containing them” (ISK Americas Incorporated, priority 1997, dated 2002).

Assays:
Type in all cases: in vivo
[1] = system: redroot pigweed (Amaranthus retroflexus, AMARE); assay: Pre-emerge test, greenhouse herbicide activity screening; conditions: rated 14 days after application, 0 = no damage, 100 = complete death
Method in brief: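 Herbicidal damage is scored 0 (none) to 100 (complete plant death) two weeks after a simulated field spray. Rates span 15–1000 g ai/ha, delivered in acetone at 187 l/ha. For post-emergence treatments, plants have 2–3 leaves and the spray carries 0.25% v/v non-ionic surfactant.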

[2] = system: lambsquarters (Chenopodium album, CHEAL); assay: as above; conditions: rated 14 days after application, 0 = no damage, 100 = complete death
Method in brief: (§1)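 Applied at 15–1000 g ai/ha from acetone in 187 l/ha spray volume. Post-emergence applications included 0.25% v/v non-ionic surfactant and reached plants sown 8–21 days before. Pre-emergence applications were incorporated by surface watering. Efficacy or crop damage was rated on a 0–100 scale after 14 days.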

[3] = system: velvetleaf (Abutilon theophrasti, ABUTH); assay: as above; conditions: rated 14 days after application, 0 = no damage, 100 = complete death
Method in brief: as §1

[4] = system: johnsongrass (Sorghum halepense, SORHA); assay: as above; conditions: rated 14 days after application, 0 = no damage, 100 = complete death
Method in brief: as §1

[5] = system: common ragweed (Ambrosia artemisizfolia L., AMBEL); assay: as above; conditions: rated 14 days after application, 0 = no damage, 100 = complete death
Method in brief: as §1

[6] = system: sicklepod (Cassia obtusifolia, CASOB); assay: as above; conditions: rated 14 days after application, 0 = no damage, 100 = complete death
Method in brief: as §1

[7] = system: ivyleaf morningglory (Ipomoea hederacea, IPOHE); assay: as above; conditions: rated 14 days after application, 0 = no damage, 100 = complete death
Method in brief: as §1

[8] = system: green foxtail (Setaria viridis, SETVI); assay: as above; conditions: rated 14 days after application, 0 = no damage, 100 = complete death
Method in brief: as §1

[9] = system: large crabgrass (Digitaria sanguinalis, DIGSA); assay: as above; conditions: rated 14 days after application, 0 = no damage, 100 = complete death
Method in brief: as §1

[10] = system: barnyardgrass (Echinochloa crus-galli, ECHCG); assay: as above; conditions: rated 14 days after application, 0 = no damage, 100 = complete death
Method in brief: as §1

[11] = system: redroot pigweed (Amaranthus retroflexus, AMARE); assay: Post-emerge test, greenhouse herbicide activity screening; conditions: post-emerge, 14 days after application, rating scale 0-100
Method in brief: (§2)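 Compounds in acetone were track-sprayed at 187 l/ha, 15–1000 g ai/ha, onto sandy loam pots. Pre-emerge seeds were sown one day before spraying, with surface watering afterwards. Post-emerge plants were at the 2–3 leaf stage and sprayed with 0.25% v/v non-ionic surfactant. Injury was rated 0–100 at 14 days.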

[12] = system: lambsquarters (Chenopodium album, CHEAL); assay: as above; conditions: post-emerge, 14 days after application, rating scale 0-100
Method in brief: as §2

[13] = system: velvetleaf (Abutilon theophrasti, ABUTH); assay: as above; conditions: post-emerge, 14 days after application, rating scale 0-100
Method in brief: as §2

[14] = system: johnsongrass (Sorghum halepense, SORHA); assay: as above; conditions: post-emerge, 14 days after application, rating scale 0-100
Method in brief: as §2

[15] = system: common ragweed (Ambrosia artemisizfolia L., AMBEL); assay: as above; conditions: post-emerge, 14 days after application, rating scale 0-100
Method in brief: as §2

[16] = system: sicklepod (Cassia obtusifolia, CASOB); assay: as above; conditions: post-emerge, 14 days after application, rating scale 0-100
Method in brief: as §2

[17] = system: ivyleaf morningglory (Ipomoea hederacea, IPOHE); assay: as above; conditions: post-emerge, 14 days after application, rating scale 0-100
Method in brief: as §2

[18] = system: large crabgrass (Digitaria sanguinalis, DIGSA); assay: as above; conditions: post-emerge, 14 days after application, rating scale 0-100
Method in brief: as §2

[19] = system: barnyardgrass (Echinochloa crus-galli, ECHCG); assay: as above; conditions: post-emerge, 14 days after application, rating scale 0-100
Method in brief: as §2

[20] = system: field corn (Zea mays L., var. Dekalb 535, CORN); assay: Post-emerge test, crop safety; conditions: post-emerge, 14 days after application, rating scale 0-100
Method in brief: as §1

[21] = system: upland rice (Oryza sp., var. Tebonnet, RICE); assay: Post-emerge test, crop safety; conditions: post-emerge, 14 days after application, rating scale 0-100
Method in brief: as §1

[22] = system: field corn (Zea mays L., var. Dekalb 535, CORN); assay: Pre-emerge test, crop safety; conditions: rated 14 days after application, 0 = no damage, 100 = complete death
Method in brief: (§3)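 Plants grown in 10 cm pots of sandy loam mix received acetone-dissolved compounds through a moving flat-fan nozzle. Doses ranged from 15 to 1000 g ai/ha. Pre-emerge pots were seeded one day earlier, post-emerge pots 8–21 days earlier. Fourteen days on, each pot was graded 0–100 for damage.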

[23] = system: upland rice (Oryza sp., var. Tebonnet, RICE); assay: Pre-emerge test, crop safety; conditions: rated 14 days after application, 0 = no damage, 100 = complete death
Method in brief: as §3

Question: How did the “Pre-emerge Herbicidal Activity, phytotoxicity rating (0-100), AMARE” value ([1]; 63 g ai/ha) turn out when `COc1c(Cl)cc(F)c(-n2c(=O)cc(C(F)(F)F)n(C)c2=O)c1N(C(=O)c1ccc(C(F)(F)F)cc1)C(=O)c1ccc(C(F)(F)F)cc1` [2-34] was run?
Answer: The value was 100.

Question: What about the “Pre-emerge Herbicidal Activity, phytotoxicity rating (0-100), AMARE” value ([1]; 250 g ai/ha) of the same compound?
Answer: Its value is 100.

Question: And the “Pre-emerge Herbicidal Activity, phytotoxicity rating (0-100), CHEAL” value ([2]; 63 g ai/ha)?
Answer: The value was 100.

Question: What about the “Pre-emerge Herbicidal Activity, phytotoxicity rating (0-100), CHEAL” value ([2]; 250 g ai/ha) of the same compound?
Answer: The value was 100.

Question: And the “Pre-emerge Herbicidal Activity, phytotoxicity rating (0-100), ABUTH” value ([3]; 63 g ai/ha)?
Answer: Its value is 100.

Question: What about the “Pre-emerge Herbicidal Activity, phytotoxicity rating (0-100), ABUTH” value ([3]; 250 g ai/ha) of the same compound?
Answer: Its value is 100.

Question: And the “Pre-emerge Herbicidal Activity, phytotoxicity rating (0-100), SORHA” value ([4]; 63 g ai/ha)?
Answer: The value was 20.

Question: What about the “Pre-emerge Herbicidal Activity, phytotoxicity rating (0-100), SORHA” value ([4]; 250 g ai/ha) of the same compound?
Answer: Its value is 85.

Question: What about the “Pre-emerge Herbicidal Activity, phytotoxicity rating (0-100), AMBEL” value ([5]; 63 g ai/ha) of the same compound?
Answer: Its value is 100.

Question: And the “Pre-emerge Herbicidal Activity, phytotoxicity rating (0-100), AMBEL” value ([5]; 250 g ai/ha)?
Answer: The value was 100.

Question: What about the “Pre-emerge Herbicidal Activity, phytotoxicity rating (0-100), CASOB” value ([6]; 63 g ai/ha) of the same compound?
Answer: The value was 100.

Question: And the “Pre-emerge Herbicidal Activity, phytotoxicity rating (0-100), CASOB” value ([6]; 250 g ai/ha)?
Answer: Its value is 100.

Question: What about the “Pre-emerge Herbicidal Activity, phytotoxicity rating (0-100), IPOHE” value ([7]; 63 g ai/ha) of the same compound?
Answer: Its value is 100.

Question: And the “Pre-emerge Herbicidal Activity, phytotoxicity rating (0-100), IPOHE” value ([7]; 250 g ai/ha)?
Answer: The value was 100.

Question: And the “Pre-emerge Herbicidal Activity, phytotoxicity rating (0-100), SETVI” value ([8]; 63 g ai/ha)?
Answer: The value was 95.

Question: And the “Pre-emerge Herbicidal Activity, phytotoxicity rating (0-100), SETVI” value ([8]; 250 g ai/ha)?
Answer: The value was 100.

Question: And the “Pre-emerge Herbicidal Activity, phytotoxicity rating (0-100), DIGSA” value ([9]; 63 g ai/ha)?
Answer: Its value is 70.

Question: And the “Pre-emerge Herbicidal Activity, phytotoxicity rating (0-100), DIGSA” value ([9]; 250 g ai/ha)?
Answer: Its value is 100.

Question: And the “Pre-emerge Herbicidal Activity, phytotoxicity rating (0-100), ECHCG” value ([10]; 63 g ai/ha)?
Answer: Its value is 70.

Question: What about the “Pre-emerge Herbicidal Activity, phytotoxicity rating (0-100), ECHCG” value ([10]; 250 g ai/ha) of the same compound?
Answer: The value was 99.

Question: And the “phytotoxicity rating AMARE” value ([11]; 63 g ai/ha)?
Answer: The value was 95.

Question: And the “phytotoxicity rating AMARE” value ([11]; 250 g ai/ha)?
Answer: Its value is 95.

Question: What about the “phytotoxicity rating CHEAL” value ([12]; 63 g ai/ha) of the same compound?
Answer: The value was 85.

Question: And the “phytotoxicity rating CHEAL” value ([12]; 250 g ai/ha)?
Answer: Its value is 90.

Question: What about the “phytotoxicity rating ABUTH” value ([13]; 63 g ai/ha) of the same compound?
Answer: The value was 100.

Question: And the “phytotoxicity rating ABUTH” value ([13]; 250 g ai/ha)?
Answer: The value was 100.

Question: And the “phytotoxicity rating SORHA” value ([14]; 63 g ai/ha)?
Answer: The value was 40.

Question: And the “phytotoxicity rating SORHA” value ([14]; 250 g ai/ha)?
Answer: The value was 80.

Question: What about the “phytotoxicity rating AMBEL” value ([15]; 63 g ai/ha) of the same compound?
Answer: Its value is 70.

Question: What about the “phytotoxicity rating AMBEL” value ([15]; 250 g ai/ha) of the same compound?
Answer: The value was 85.

Question: What about the “phytotoxicity rating CASOB” value ([16]; 63 g ai/ha) of the same compound?
Answer: Its value is 100.

Question: What about the “phytotoxicity rating CASOB” value ([16]; 250 g ai/ha) of the same compound?
Answer: Its value is 100.

Question: What about the “phytotoxicity rating IPOHE” value ([17]; 63 g ai/ha) of the same compound?
Answer: Its value is 75.

Question: What about the “phytotoxicity rating IPOHE” value ([17]; 250 g ai/ha) of the same compound?
Answer: Its value is 95.

Question: What about the “phytotoxicity rating DIGSA” value ([18]; 63 g ai/ha) of the same compound?
Answer: The value was 10.

Question: What about the “phytotoxicity rating DIGSA” value ([18]; 250 g ai/ha) of the same compound?
Answer: The value was 30.

Question: And the “phytotoxicity rating ECHCG” value ([19]; 63 g ai/ha)?
Answer: The value was 0.

Question: What about the “phytotoxicity rating ECHCG” value ([19]; 250 g ai/ha) of the same compound?
Answer: Its value is 30.

Question: And the “phytotoxicity rating CORN” value ([20]; 63 g ai/ha)?
Answer: Its value is 60.

Question: And the “phytotoxicity rating CORN” value ([20]; 250 g ai/ha)?
Answer: The value was 90.

Question: What about the “phytotoxicity rating RICE” value ([21]; 63 g ai/ha) of the same compound?
Answer: Its value is 65.

Question: What about the “phytotoxicity rating RICE” value ([21]; 250 g ai/ha) of the same compound?
Answer: The value was 85.

Question: And the “Pre-emerge phytotoxicity rating (0-100), crop damage, CORN” value ([22]; 63 g ai/ha)?
Answer: The value was 25.

Question: And the “Pre-emerge phytotoxicity rating (0-100), crop damage, CORN” value ([22]; 250 g ai/ha)?
Answer: Its value is 90.

Question: And the “Pre-emerge phytotoxicity rating (0-100), crop damage, RICE” value ([23]; 63 g ai/ha)?
Answer: The value was 40.

Question: And the “Pre-emerge phytotoxicity rating (0-100), crop damage, RICE” value ([23]; 250 g ai/ha)?
Answer: The value was 90.
